Reference: patent US20260138969A1 (Korea Research Institute of Chemical Technology, priority 2023, published 2026)

How the values were obtained:
Format in all cases: in vivo
[1] = tested on: MPTP-induced PD mouse model; assay: MPTP-induced PD mouse model: TH staining of striatum and substantia nigra; details: for TH levels in the substantia nigra / TH levels in the striatum: vs control group (G1); for TH levels in substantia nigra / TH levels in striatum: PO QD Day 1-7, Example 3 2/10/50 mg/kg, Example 2 50 mg/kg, vs MPTP group G2; for TH levels in striatum: Nilotinib 40 mg/kg
Description: Mice at 7 weeks of age were divided into 7 groups as shown in Table 9 below to generate an acute MPTP model and proceed with drug administration: control group+vehicle (G1), MPTP+vehicle (G2), MPTP+Nilotinib 40 mg/kg (G3), MPTP+Example 3 2 mg/kg (G4), MPTP+Example 3 10 mg/kg (G5), MPTP+Example 3 50 mg/kg (G6), and MPTP+Example 2 50 mg/kg (G7). The test drug was administered orally (PO) at 10 ml/kg once daily (QD) from Day 1 to Day 7. The acute MPTP model will be performed at 2-hour intervals in all groups except the control group. […] was administered as intraperitoneal (IP) injection for 4 doses. The control group was given the same amount of 0.9% saline. The Pole test was performed on day 4 (after training on day 2 and day 3). On day 7, all mice were euthanized, and their brains were harvested.
Mice were euthanized with Zoletil administration for collection of tissue samples for staining and analysis of histological sections. Blood was collected from the heart of the mouse and then the residual blood was perfused with phosphate-buffered saline (PBS). For half of the mice (n=6/group), the brain was incised into the striatum, substantia nigra, and the rest of the brain, flash-frozen, and stored at −80° C. The remaining mice (n=6/group) had their brains isolated and immobilized in 4% paraformaldehyde for 24 hours at 4° C., followed by 30% sucrose in phosphate-buffered saline (PBS) containing 0.02% sodium azide and stored at 4° C. for 3 days. Immunohistochemical sections were performed on brain samples embedded with optimal cutting temperature (OCT) compounds. Samples were sectioned to a thickness of 20 μm using Leica CM1950 (Leica Microsystems, Germany) and stored at 4° C. in a preservation solution until staining with antibodies.
After staining the striatum and substantia nigra of the brain and mounting them on microscopic slides, the slides were washed with PBS containing 0.3% Triton X-100 and peroxidase block for 15 min at room temperature. The slides were washed three times with PBS containing 0.3% Triton X-100 and then blocked at RT (room temperature) for 1 hour in a solution containing PBS, 5% normal goat serum, and 0.3% Triton X-100. Tyrosine hydroxylase antibody was diluted at 1:1000 and incubated overnight at 4° C. The slides were washed with PBS solution and incubated for 1 h at RT with secondary antibody. The slides were washed with PBS solution and the sections were placed in the solution to proceed with the DAB (diaminobenzidine) reaction.
The DAB response was monitored under a microscope for 2 to 3 minutes, and the slides were washed with PBS to stop the DAB response, dehydrated, and mounted using xylene. An Olympus microscope (Olympus, SZ61, BX51) was used to visualize TH stained images. The optical density (OD) value of positive TH staining was measured in the striatum and substantia nigra and analyzed using Image J software.

[2] = tested on: α-Syn transgenic Parkinson's disease mouse model; assay: α-Syn transgenic Parkinson's disease mouse model: step error (beam test); details: at 7 and 9 months; Memantine 10 mg/kg, Example 3 2/10/50 mg/kg, Example 2 2 mg/kg PO QD; vs G2
Description: The test drug was administered once daily (QD) via oral administration (PO) with a solution of 5 ml/kg for 5 months from 4 months to 9 months of age. Motor behavior tests (beam test) and neurological scores (modified Irwin test) were performed at 4 months (before administration), 7 months, and 9 months. After the final behavioral test, tissue samples were taken. Weight was measured on the same day once a week from 4 months of age until the end of the study.
The procedure described by Fleming et al. (J Neurosci, 24:9434-40, 2004) was adopted as the beam test (Challenging Beam Traversal). Exercise capacity was measured with a new beam test that was a modification of the existing beam walking test. The beam is made of Plexiglas and consists of four sections (each 25 cm and a total length of 1 m), each with a different width. The beam is designed to start at 3.5 cm wide and gradually narrow in increments of 0.5 cm×1 cm. A shelf 1 cm wide was placed 1.0 cm below the top surface of the beam.
The mouse was trained to cross the length of the beam, starting from the widest section and ending with the narrowest and most difficult section. The narrow end of the beam is designed to connect directly to the mouse's house cage. The mice were trained for two days before testing, and all training was carried out without a mesh grid. On the first day, two auxiliary exercises were performed, in which the mouse was placed on a beam and the home cage was placed close to the mouse. This induces it to move forward along the beam. […]
The error was counted if the limb (front or hind leg) passed through the grid during forward movement and was visible between the grid and the beam surface. […] Error was measured by scoring each limb slippage individually. For example, a mouse with three limbs slipping off the grid in one step was rated with an error score of 3 points, while a mouse with only one limb slipped off the grid in one step was evaluated with an error score of 1 in that step. […] The number of step errors and the time it took to cross were measured and averaged in all five experiments.

[3] = tested on: SOD1 G93A transgenic ALS mouse model; assay: SOD1 G93A transgenic ALS mouse model: disease symptom score (ALSTDI); details: 30 mg/kg PO QD from 8 weeks of age; vs G2
Description: The test drug was administered once daily (QD) via oral administration (PO) in a solution of 5 mL/kg from 8 weeks of age until death. Body weight was measured weekly, and disease score was measured daily from 8 weeks until the death of the animal. Motor behavior tests (grip strength) and neurological score tests (modified Irwin test) were performed at 9, 11, 13, 15, 17, 19, and 21 weeks, respectively. The survival of the mice was monitored daily.
From 8 weeks of age, the neurological scoring system developed by the ALS Therapy Development Institute (ALSTDI) method was used to evaluate disease symptoms in mice. Both hind legs were scored based on Table 14 below.

## Cc1cc(F)c(C(=O)Nc2cccc(-n3nnc4c3CCC4)n2)cc1-n1cnc(C2CC2)c1 [Example 2, 5-(4-cyclopropyl-1H-imidazole-1-yl)-N-(6-(5,6-dihydrocyclopenta[d][1,2,3]triazole-1 (4H)-yl)pyridine-2-yl)-2-fluoro-4-methylbenzamide]
[1]; 50 mg/kg PO QD
  TH levels in the substantia nigra: significantly higher than in the control group (G1)
[1]
  TH levels in substantia nigra: significant increase
  TH levels in striatum: significant increase
[2]
  number of step errors (beam test): significant reduction in the number of step errors compared to Group G2

## Cc1cc(F)c(C(=O)Nc2cccc(-n3nnc4c3CCCC4)n2)cc1-n1cnc(C2CC2)c1 [Example 3, 5-(4-cyclopropyl-1H-imidazole-1-yl)-2-fluoro-4-methyl-N-(6-(4,5,6,7-tetrahydro-1H-benzo[d][1,2,3]triazole-1-yl)pyridine-2-yl)benzamide]
[1]; 10 mg/kg PO QD
  TH levels in the striatum: significantly higher than in the control group (G1)
  TH levels in the substantia nigra: significantly higher than in the control group (G1)
[1]; 50 mg/kg PO QD
  TH levels in the striatum: significantly higher than in the control group (G1)
  TH levels in the substantia nigra: significantly higher than in the control group (G1)
[1]
  TH levels in substantia nigra: significant increase
  TH levels in striatum: significant increase
[2]
  number of step errors (beam test): significant reduction in the number of step errors compared to Group G2
[3]
  disease symptom score: tended to have a lower disease symptom score compared to G2 during the observation period, and decreased significantly at 20 weeks
